# Test results: the supplement of paper PMC10307832
# Assays:
# Assay in all cases: relative viability (nuclei count vs DMSO), 5 days (fraction); higher = more cells survive
# [1] = compound: COC1=CC(c2cc3ccccc3[nH]2)=N/C1=C\c1[nH]c(C)cc1C [Obatoclax] + O=C(c1cc(Cc2n[nH]c(=O)c3ccccc23)ccc1F)N1CCN(C(=O)C2CC2)CC1 [Olaparib] (partner 8 µM)
# Summary of the method: (§1)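 After 5 days of treatment, lung cancer cells in 1536-well plates were fixed and stained in a single step (final 0.05% Triton X-100, 1% formaldehyde, 1 ug/ml Hoechst) and their nuclei counted on 4× images. Treatment had been applied by pin tool the day after seeding as one drug alone or as a fixed anchor-drug dose with five library-drug doses (not always all listed) in √10 steps. Relative viability is the nuclei count of treated wells divided by that of vehicle wells, and values are medians of duplicate plates.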
# [2] = compound: CC1=CC(=NN1)NC2=CC(=NC(=N2)/C=C/C3=CC=CC=C3)N4CCN(CC4)C + CC(=O)c1c(C)c2cnc(Nc3ccc(N4CCNCC4)cn3)nc2n(C2CCCC2)c1=O [Palbociclib] (partner 0.5 µM)
# Summary of the method: as §1
# [3] = compound: CC1=CC(=NN1)NC2=CC(=NC(=N2)/C=C/C3=CC=CC=C3)N4CCN(CC4)C + CS(=O)(=O)CCNCc1ccc(-c2ccc3ncnc(Nc4ccc(OCc5cccc(F)c5)c(Cl)c4)c3c2)o1 [Lapatinib] (partner 2 µM)
# Summary of the method: as §1
# [4] = compound: COC1=CC(c2cc3ccccc3[nH]2)=N/C1=C\c1[nH]c(C)cc1C [Obatoclax] + N=C(N)NC(=N)NCCc1ccccc1 [Phenformin] (partner 250 µM)
# Summary of the method: as §1
Cell Line,relative viability ([1]; first compound 0.01 µM),relative viability ([1]; first compound 0.03162 µM),relative viability ([1]; first compound 0.1 µM),relative viability ([1]; first compound 0.3162 µM),relative viability ([1]; first compound 1 µM),relative viability ([2]; first compound 0.08 µM),relative viability ([2]; first compound 0.253 µM),relative viability ([2]; first compound 0.8 µM),relative viability ([2]; first compound 2.53 µM),relative viability ([2]; first compound 8 µM),relative viability ([3]; first compound 0.08 µM),relative viability ([3]; first compound 0.253 µM),relative viability ([3]; first compound 0.8 µM),relative viability ([3]; first compound 2.53 µM),relative viability ([3]; first compound 8 µM),relative viability ([4]; first compound 0.01 µM),relative viability ([4]; first compound 0.03162 µM),relative viability ([4]; first compound 0.1 µM),relative viability ([4]; first compound 0.3162 µM),relative viability ([4]; first compound 1 µM)
NCI-H1666,0.769,0.726,0.766,0.691,0.585,0.684,0.621,0.567,0.638,0.604,0.738,0.549,0.669,0.416,0.131,0.576,0.542,0.571,0.494,0.421
NCI-H1734,0.609,0.624,0.601,0.546,0.505,0.34,0.278,0.313,0.249,0.13,0.968,1.06,0.958,0.577,0.145,0.436,0.341,0.318,0.318,0.32
NCI-H1755,0.873,0.901,0.868,0.787,0.839,0.413,0.433,0.466,0.382,0.325,1.06,1.12,1.01,0.535,0.143,0.622,0.6,0.492,0.634,0.541
NCI-H1792,0.423,0.334,0.299,0.369,0.405,0.649,0.751,0.684,0.559,0.155,0.862,0.861,0.892,0.841,0.145,0.371,,,0.176,0.0627
NCI-H1793,0.869,0.833,0.939,0.784,0.783,0.325,0.374,0.273,0.157,0.144,0.528,0.566,0.656,0.1,0.0979,0.404,0.32,0.377,0.345,0.332
NCI-H1915,0.269,0.256,0.252,0.257,0.247,0.531,0.526,0.484,0.354,0.226,0.972,1.01,0.954,0.453,0.514,0.361,0.362,0.337,0.363,0.343
NCI-H1944,0.412,0.427,0.443,0.418,0.392,0.373,0.341,0.338,0.264,0.189,0.837,0.931,0.865,0.655,0.29,0.215,0.202,0.149,0.201,0.18
NCI-H1975,0.78,0.695,0.746,0.744,0.288,0.533,0.754,0.593,0.285,0.111,0.933,0.923,0.894,0.203,0.149,0.438,0.427,,0.355,0.228
